Measured values taken from ChEMBL document CHEMBL1122672, “Substituent branching in phenethylamine-type hallucinogens: a comparison of 1-[2,5-dimethoxy-4-(2-butyl)phenyl]-2-aminopropane and 1-[2,5-dimethoxy-4-(2-methylpropyl)phenyl]-2-aminopropane” (1984).

Experiments:
[1] = species: Rattus norvegicus; assay: Compound was evaluated for the drug discrimination assay and the highest percent of LSD correct responses were determined in rats; format: functional
[2] = species: Rattus norvegicus; assay: Compound was evaluated for the drug discrimination assay and the ED50 (potency) was determined in rats; format: functional

Q: Which results are given for `CCC(C)c1cc(OC)c(CC(C)N)cc1OC.Cl` (stereo not drawn)?
A: LSD [1]: 70%; ED50 [2]: 1.8 mg/kg

Q: With `COc1cc(CC(C)N)c(OC)cc1CC(C)C.Cl` (stereo not drawn) as the compound, how does the LSD [1] read?
A: 95%

Q: What about the ED50 [2] of the same compound?
A: 0.536 mg/kg

Q: Which LSD [1] does the source give for `COc1cc(CC(C)N)c(OC)cc1C` (stereo not drawn) [DOM] here?
A: 99%

Q: And the ED50 [2]?
A: 0.148 mg/kg

Q: How did the LSD [1] turn out when `CCN(CC)C(=O)[C@@H]1C=C2c3cccc4[nH]cc(c34)C[C@H]2N(C)C1` [LYSERGIDE] was run?
A: 100%

Q: And the ED50 [2]?
A: 0.0077 mg/kg
